Measurements from patent US20250376662A1, “FORWARD PROGRAMMED BLOOD-BRAIN BARRIER MODEL” (priority 2024, published 2025).

Test system: HUVECs
Assay: Gene expression in HUVECs treated with KLF2 lentivirus and CHIR99021
Format: cell-based, human
Method: RNA was extracted using Direct-zol RNA Miniprep kit (Zymo, R2050). Reverse transcription was performed to obtain cDNA using GoScript Reverse Transcriptase with Oligo (dT) kit (Promega, A2791). Real-time gene expression analysis was conducted using 25-μl reactions containing SYBR Green PCR Master Mix (Life Technologies, 4309155) along with primers specific for gene of interests (Table 2). PCR was run according to manufacturer protocols on Agilent AriaMX Real-Time PCR system.
Recognizing the strong effect of KLF2 or KLF4 overexpression on BBB gene expression, explored whether activated Wnt signaling impacted the ability of KLF overexpression to modulate BBB gene expression. […] This finding indicates a synergistic effect of these two pathways in inducing BBB gene expression. […] Such shifts in Wnt TF expression have been reported to be correlated with β-catenin levels, and represents higher canonical Wnt activities (Guo et al. 2021). Thus, to further assess the canonical Wnt signaling activation, we used an hPSC Wnt reporter line, H9 7TGP. The engineered 7TGP line expresses GFP under the control of a consensus TCF/LEF binding sequence promoter that reports canonical Wnt/β-catenin signaling activation (Lian et al. 2012; Fuerer and Nusse 2010). […] To assess whether these factors induce BBB gene expression in primary EC, we treated.

## Cc1c[nH]c(-c2cnc(NCCNc3ccc(C#N)cn3)nc2-c2ccc(Cl)cc2Cl)n1 [CHIR99021]
  expression of Wnt signaling TF transcripts LEF1 and TCF7: significantly increased the expression
